Consider 24 molecules from the NIST ThermoML archive (doi:10.1016/j.jct.2017.03.004).

Each structure is given as a SMILES string. Numbers after ± are expanded uncertainties.

This data set in a line: activity coefficient (dimensionless); of the first substance listed, at infinite dilution; xn = mol fraction of the nth substance listed. The conditions noted are these: 101.33 kPa, Liquid, Chromatography, x1 = 0.

For `Cc1ccccc1C` [1,2-dimethylbenzene] + N#C[N-]C#N.OCCC[n+]1ccccc1, the activity coefficient is, setting by setting: (318.15 K) 11.1 ± 0.8; (328.15 K) 11.5 ± 0.8; (338.15 K) 11.9 ± 0.8; (348.15 K) 12.3 ± 0.8; (358.15 K) 12.7 ± 0.9; (368.15 K) 13 ± 0.9.
`Cc1cccc(C)c1` [1,3-dimethylbenzene] + N#C[N-]C#N.OCCC[n+]1ccccc1: the activity coefficient (318.15 K) is 14.4 ± 1; the activity coefficient (328.15 K) stood at 14.8 ± 1; the activity coefficient (338.15 K) amounted to 15.3 ± 1; the activity coefficient (348.15 K) is 15.7 ± 1.1; the activity coefficient (358.15 K) was 16.1 ± 1.1; the activity coefficient (368.15 K) stood at 16.5 ± 1.1.
As to `Cc1ccc(C)cc1` [1,4-dimethylbenzene] + N#C[N-]C#N.OCCC[n+]1ccccc1, the activity coefficient (318.15 K) amounted to 13.8 ± 0.9; the activity coefficient (328.15 K) was 14.3 ± 1; the activity coefficient (338.15 K) was determined as 14.8 ± 1; the activity coefficient (348.15 K) worked out at 15.3 ± 1; the activity coefficient (358.15 K) is 15.7 ± 1.1; the activity coefficient (368.15 K) was 16.2 ± 1.1.
For the molecule `C1COCCO1` [1,4-dioxane] + N#C[N-]C#N.OCCC[n+]1ccccc1, the activity coefficient by setting is: (318.15 K) 1.74 ± 0.12; (328.15 K) 1.86 ± 0.13; (338.15 K) 1.99 ± 0.14; (348.15 K) 2.12 ± 0.14; (358.15 K) 2.25 ± 0.15; (368.15 K) 2.38 ± 0.16.
Turning to `C=CCCCCCCCC` [1-decene] + N#C[N-]C#N.OCCC[n+]1ccccc1, the activity coefficient is 1030 ± 71 (298.15 K); 954 ± 66 (308.15 K); 887 ± 61 (318.15 K); 829 ± 57 (328.15 K); 777 ± 54 (338.15 K); 731 ± 50 (348.15 K). In addition, for the setting “358.15 K”, the activity coefficient amounted to 691 ± 48.
In the case of `C=CCCCCC` [1-heptene] + N#C[N-]C#N.OCCC[n+]1ccccc1, the activity coefficient amounted to 223 ± 15 (298.15 K); 211 ± 15 (308.15 K); 200 ± 14 (318.15 K); 190 ± 13 (328.15 K); 182 ± 13 (338.15 K); 174 ± 12 (348.15 K). Moreover, the activity coefficient (358.15 K) was found to be 167 ± 11.
On to `C#CCCCCC` [1-heptyne] + N#C[N-]C#N.OCCC[n+]1ccccc1, for which the activity coefficient reads like this: (298.15 K) 35.7 ± 2.4; (308.15 K) 36.5 ± 2.5; (318.15 K) 37.4 ± 2.6; (328.15 K) 38.2 ± 2.6; (338.15 K) 39 ± 2.7; (348.15 K) 39.7 ± 2.7. In addition, where the note is “358.15 K”, the activity coefficient was 40.4 ± 2.8.
Take `C#CCCCC` [1-hexyne] + N#C[N-]C#N.OCCC[n+]1ccccc1: the activity coefficient runs as follows: (298.15 K) 19.8 ± 1.4; (308.15 K) 20.6 ± 1.4; (318.15 K) 21.5 ± 1.5; (328.15 K) 22.5 ± 1.5; (338.15 K) 23.4 ± 1.6; (348.15 K) 24.3 ± 1.7. For the same molecule, the activity coefficient (358.15 K) came to 25.2 ± 1.7.
For the molecule `CCC[N+](=O)[O-]` [1-nitropropane] + N#C[N-]C#N.OCCC[n+]1ccccc1, the activity coefficient was determined as 2.96 ± 0.2 (318.15 K); 3.08 ± 0.21 (328.15 K); 3.18 ± 0.22 (338.15 K); 3.28 ± 0.22 (348.15 K); 3.37 ± 0.23 (358.15 K); 3.47 ± 0.24 (368.15 K).
In the case of `C#CCCCCCC` [1-octyne] + N#C[N-]C#N.OCCC[n+]1ccccc1, the activity coefficient was 67.5 ± 4.6 (298.15 K); 68.5 ± 4.7 (308.15 K); 69.4 ± 4.8 (318.15 K); 70.2 ± 4.8 (328.15 K); 71.1 ± 4.9 (338.15 K); 71.8 ± 4.9 (348.15 K). In addition, the activity coefficient (358.15 K) is 72.6 ± 5.
On to `C=CCCC` [1-pentene] + N#C[N-]C#N.OCCC[n+]1ccccc1, for which the activity coefficient is, setting by setting: (298.15 K) 74.6 ± 5.1; (308.15 K) 70.2 ± 4.8; (318.15 K) 66.3 ± 4.5; (328.15 K) 63.1 ± 4.3.
As to `C#CCCC` [1-pentyne] + N#C[N-]C#N.OCCC[n+]1ccccc1, the activity coefficient by setting is: (298.15 K) 11.1 ± 0.8; (308.15 K) 11.6 ± 0.8; (318.15 K) 12.1 ± 0.8; (328.15 K) 12.6 ± 0.9; (338.15 K) 13.1 ± 0.9; (348.15 K) 13.5 ± 0.9. Moreover, under “358.15 K”, the activity coefficient came out at 14 ± 1.
Take `CC(C)CC(C)(C)C` [2,2,4-trimethylpentane] + N#C[N-]C#N.OCCC[n+]1ccccc1: the activity coefficient reads like this: (298.15 K) 800 ± 55; (308.15 K) 714 ± 49; (318.15 K) 640 ± 44; (328.15 K) 579 ± 40.
As for `CCOC(C)(C)C` [2-ethoxy-2-methylpropane] + N#C[N-]C#N.OCCC[n+]1ccccc1, the activity coefficient by setting is: (318.15 K) 85.6 ± 5.9; (328.15 K) 83.9 ± 5.8; (338.15 K) 82.4 ± 5.6; (348.15 K) 80.7 ± 5.5; (358.15 K) 79.1 ± 5.4; (368.15 K) 77.9 ± 5.3.
Turning to `CCC(C)(C)OC` [2-methoxy-2-methylbutane] + N#C[N-]C#N.OCCC[n+]1ccccc1, the activity coefficient was 41.8 ± 2.9 (318.15 K); 42 ± 2.9 (328.15 K); 42.1 ± 2.9 (338.15 K); 42.3 ± 2.9 (348.15 K); 42.5 ± 2.9 (358.15 K); 42.6 ± 2.9 (368.15 K).
For the molecule `COC(C)(C)C` [2-methoxy-2-methylpropane] + N#C[N-]C#N.OCCC[n+]1ccccc1, the activity coefficient was found to be 25.1 ± 1.7 (318.15 K); 25.5 ± 1.7 (328.15 K); 25.9 ± 1.8 (338.15 K); 26.2 ± 1.8 (348.15 K); 26.6 ± 1.8 (358.15 K); 26.9 ± 1.8 (368.15 K).
As to `CC(C)CO` [2-methyl-1-propanol] + N#C[N-]C#N.OCCC[n+]1ccccc1, the activity coefficient (318.15 K) was 3.31 ± 0.23; the activity coefficient (328.15 K) was 3.26 ± 0.22; the activity coefficient (338.15 K) came out at 3.2 ± 0.22; the activity coefficient (348.15 K) came out at 3.15 ± 0.21; the activity coefficient (358.15 K) stood at 3.11 ± 0.21; the activity coefficient (368.15 K) stood at 3.06 ± 0.21.
Regarding `CC(C)(C)O` [2-methylpropan-2-ol] + N#C[N-]C#N.OCCC[n+]1ccccc1, the activity coefficient is 3.08 ± 0.21 (318.15 K); 3.08 ± 0.21 (328.15 K); 3.07 ± 0.21 (338.15 K); 3.07 ± 0.21 (348.15 K); 3.07 ± 0.21 (358.15 K); 3.05 ± 0.21 (368.15 K).
In the case of `CCC(C)CC` [3-methylpentane] + N#C[N-]C#N.OCCC[n+]1ccccc1, the activity coefficient was 321 ± 22 (298.15 K), 302 ± 21 (308.15 K), 286 ± 20 (318.15 K) and 272 ± 19 (328.15 K).
In the case of `C=C(C)c1ccccc1` [(1-methylethenyl)benzene] + N#C[N-]C#N.OCCC[n+]1ccccc1, the activity coefficient by setting is: (318.15 K) 11.3 ± 0.8; (328.15 K) 12 ± 0.8; (338.15 K) 12.7 ± 0.9; (348.15 K) 13.3 ± 0.9; (358.15 K) 14 ± 1; (368.15 K) 14.6 ± 1.
Turning to `CC(C)=O` [acetone] + N#C[N-]C#N.OCCC[n+]1ccccc1, the activity coefficient is 1.87 ± 0.13 (318.15 K); 1.97 ± 0.13 (328.15 K); 2.05 ± 0.14 (338.15 K); 2.14 ± 0.15 (348.15 K); 2.23 ± 0.15 (358.15 K); 2.31 ± 0.16 (368.15 K).
On to `CC#N` [acetonitrile] + N#C[N-]C#N.OCCC[n+]1ccccc1, for which the activity coefficient is, setting by setting: (318.15 K) 1.24 ± 0.08; (328.15 K) 1.29 ± 0.08; (338.15 K) 1.34 ± 0.09; (348.15 K) 1.38 ± 0.09; (358.15 K) 1.43 ± 0.09; (368.15 K) 1.48 ± 0.1.
Turning to `c1ccccc1` [benzene] + N#C[N-]C#N.OCCC[n+]1ccccc1, the activity coefficient by setting is: (318.15 K) 5.02 ± 0.34; (328.15 K) 5.18 ± 0.35; (338.15 K) 5.36 ± 0.37; (348.15 K) 5.53 ± 0.38; (358.15 K) 5.69 ± 0.39; (368.15 K) 5.85 ± 0.4.
Regarding `CCCCO` [butan-1-ol] + N#C[N-]C#N.OCCC[n+]1ccccc1, the activity coefficient was found to be 3.29 ± 0.22 (318.15 K); 3.23 ± 0.22 (328.15 K); 3.18 ± 0.22 (338.15 K); 3.13 ± 0.21 (348.15 K); 3.09 ± 0.21 (358.15 K); 3.05 ± 0.21 (368.15 K).
